In article doi:10.1101/2023.03.26.531482v1 (biorxiv, 2023):
Read-outs that look alike come from different tables or passages of the source.

Assays:
[1] = target: MtDTBS (Mycobacterium tuberculosis dethiobiotin synthetase) (Mycobacterium tuberculosis, UniProt P9WPQ5)
[2] = target: T1, MtDTBS (Mycobacterium tuberculosis dethiobiotin synthetase) (Mycobacterium tuberculosis, UniProt P9WPQ5); assay: biochemical
T1 sequence (P9WPQ5 1-226): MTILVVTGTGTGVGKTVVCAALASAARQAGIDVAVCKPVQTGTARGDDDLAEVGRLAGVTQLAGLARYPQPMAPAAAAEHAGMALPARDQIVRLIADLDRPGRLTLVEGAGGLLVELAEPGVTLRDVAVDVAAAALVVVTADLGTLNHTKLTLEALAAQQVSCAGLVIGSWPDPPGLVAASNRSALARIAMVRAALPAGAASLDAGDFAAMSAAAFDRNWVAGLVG

Row | Compound | Kd [1] [µM] | Kd [2] [µM]
1 | c1ccc2c(c1)CCC1(C2)NCCc2[nH]cnc21 (stereo not shown) [B1] | 1240 ± 180 | –
2 | O=C1CC(c2ccc(F)cc2)Cc2[nH]ncc21 (stereo not shown) [B3] | 620 ± 140 | –
3 | O=C1CC[N+](=Cc2cccc(C(F)(F)F)c2)[N-]1 [B7] | 680 ± 30 | –
4 | O=C1Oc2ccccc2C2(O)C3CCCC3C12 (stereo not shown) [compound 1, 9b-hydroxy-6b,7,8,9,9a,9b-hexahydrocyclopenta[3,4]cyclobuta[1,2-c]chromen-6(6aH)-one] | – | 580 ± 40
